Measured values: article PMC12670405, “Second-Generation AURKA-Targeting PROTACs: Structural Optimization toward in Vivo Degradation in Neuroblastoma” (Journal of Medicinal Chemistry, 2025)

Key:
Test in all cases: KINOMEscan scanMAX
Assay type in all cases: binding
Conditions in all cases: read-out: Percent Control
CDK2 = target: T1, CDK2 (Homo sapiens, UniProt P24941)
T1 construct: purchased Eurofins Discovery (DiscoverX KINOMEscan scanMAX)
Experimental: (§1) The kinome-wide binding assay was performed by Eurofins Discovery using the scanMAX screening platform. More information can be found on the Eurofins Discovery Web site.

KIT-autoinhibited = target: T2, KIT-autoinhibited (Homo sapiens, UniProt P10721)
T2 construct: purchased Eurofins Discovery (DiscoverX KINOMEscan scanMAX)
Experimental: as §1

ERN1 = target: T3, ERN1 (Homo sapiens, UniProt O75460)
T3 construct: purchased Eurofins Discovery (DiscoverX KINOMEscan scanMAX)
Experimental: as §1

CSK = target: T4, CSK (Homo sapiens, UniProt P41240)
T4 construct: purchased Eurofins Discovery (DiscoverX KINOMEscan scanMAX)
Experimental: as §1

MKNK2 = target: T5, MKNK2 (Homo sapiens, UniProt Q9HBH9)
T5 construct: purchased Eurofins Discovery (DiscoverX KINOMEscan scanMAX)
Experimental: as §1

CSNK2A2 = target: T6, CSNK2A2 (Homo sapiens, UniProt P19784)
T6 construct: purchased Eurofins Discovery (DiscoverX KINOMEscan scanMAX)
Experimental: as §1

MST1 = target: T7, MST1 (Homo sapiens, UniProt Q13043)
T7 construct: purchased Eurofins Discovery (DiscoverX KINOMEscan scanMAX)
Experimental: as §1

HUNK = target: T8, HUNK (Homo sapiens, UniProt P57058)
T8 construct: purchased Eurofins Discovery (DiscoverX KINOMEscan scanMAX)
Experimental: as §1

MELK = target: T9, MELK (Homo sapiens, UniProt Q14680)
T9 construct: purchased Eurofins Discovery (DiscoverX KINOMEscan scanMAX)
Experimental: as §1

PIM3 = target: T10, PIM3 (Homo sapiens, UniProt Q86V86)
T10 construct: purchased Eurofins Discovery (DiscoverX KINOMEscan scanMAX)
Experimental: as §1

MAPKAPK5 = target: T11, MAPKAPK5 (Homo sapiens, UniProt Q8IW41)
T11 construct: purchased Eurofins Discovery (DiscoverX KINOMEscan scanMAX)
Experimental: as §1

DCAMKL2 = target: T12, DCAMKL2 (Homo sapiens, UniProt Q8N568)
T12 construct: purchased Eurofins Discovery (DiscoverX KINOMEscan scanMAX)
Experimental: as §1

TIE1 = target: T13, TIE1 (Homo sapiens, UniProt P35590)
T13 construct: purchased Eurofins Discovery (DiscoverX KINOMEscan scanMAX)
Experimental: as §1

SGK3 = target: T14, SGK3 (Homo sapiens, UniProt Q96BR1)
T14 construct: purchased Eurofins Discovery (DiscoverX KINOMEscan scanMAX)
Experimental: as §1

CASK = target: T15, CASK (Homo sapiens, UniProt O14936)
T15 construct: purchased Eurofins Discovery (DiscoverX KINOMEscan scanMAX)
Experimental: as §1

AXL = target: T16, AXL (Homo sapiens, UniProt P30530)
T16 construct: purchased Eurofins Discovery (DiscoverX KINOMEscan scanMAX)
Experimental: as §1

LIMK2 = target: T17, LIMK2 (Homo sapiens, UniProt P53671)
T17 construct: purchased Eurofins Discovery (DiscoverX KINOMEscan scanMAX)
Experimental: as §1

NLK = target: T18, NLK (Homo sapiens, UniProt Q9UBE8)
T18 construct: purchased Eurofins Discovery (DiscoverX KINOMEscan scanMAX)
Experimental: as §1

EPHB3 = target: T19, EPHB3 (Homo sapiens, UniProt P54753)
T19 construct: purchased Eurofins Discovery (DiscoverX KINOMEscan scanMAX)
Experimental: as §1

MLK1 = target: T20, MLK1 (Homo sapiens, UniProt P80192)
T20 construct: purchased Eurofins Discovery (DiscoverX KINOMEscan scanMAX)
Experimental: as §1

CDK3 = target: T21, CDK3 (Homo sapiens, UniProt Q00526)
T21 construct: purchased Eurofins Discovery (DiscoverX KINOMEscan scanMAX)
Experimental: as §1

AMPK-alpha1 = target: T22, AMPK-alpha1 (Homo sapiens, UniProt Q13131)
T22 construct: purchased Eurofins Discovery (DiscoverX KINOMEscan scanMAX)
Experimental: as §1

CSNK1G1 = target: T23, CSNK1G1 (Homo sapiens, UniProt Q9HCP0)
T23 construct: purchased Eurofins Discovery (DiscoverX KINOMEscan scanMAX)
Experimental: as §1

MAP4K5 = target: T24, MAP4K5 (Homo sapiens, UniProt Q9Y4K4)
T24 construct: purchased Eurofins Discovery (DiscoverX KINOMEscan scanMAX)
Experimental: as §1

MAK = target: T25, MAK (Homo sapiens, UniProt P20794)
T25 construct: purchased Eurofins Discovery (DiscoverX KINOMEscan scanMAX)
Experimental: as §1

RIPK1 = target: T26, RIPK1 (Homo sapiens, UniProt Q13546)
T26 construct: purchased Eurofins Discovery (DiscoverX KINOMEscan scanMAX)
Experimental: as §1

DRAK1 = target: T27, DRAK1 (Homo sapiens, UniProt Q9UEE5)
T27 construct: purchased Eurofins Discovery (DiscoverX KINOMEscan scanMAX)
Experimental: as §1

SGK2 = target: T28, SGK2 (Homo sapiens, UniProt Q9HBY8)
T28 construct: purchased Eurofins Discovery (DiscoverX KINOMEscan scanMAX)
Experimental: as §1

MARK3 = target: T29, MARK3 (Homo sapiens, UniProt P27448)
T29 construct: purchased Eurofins Discovery (DiscoverX KINOMEscan scanMAX)
Experimental: as §1

CDK4-cyclinD1 = target: T30, CDK4-cyclinD1 (Homo sapiens, UniProt P11802)
T30 construct: purchased Eurofins Discovery (DiscoverX KINOMEscan scanMAX)
Experimental: as §1

TYRO3 = target: T31, TYRO3 (Homo sapiens, UniProt Q06418)
T31 construct: purchased Eurofins Discovery (DiscoverX KINOMEscan scanMAX)
Experimental: as §1

BRK = target: T32, BRK (Homo sapiens, UniProt Q13882)
T32 construct: purchased Eurofins Discovery (DiscoverX KINOMEscan scanMAX)
Experimental: as §1

FLT3(N841I) = target: T33, FLT3(N841I) (Homo sapiens, UniProt P36888, N841I)
T33 construct: purchased Eurofins Discovery (DiscoverX KINOMEscan scanMAX)
Experimental: as §1

SgK110 = target: T34, SgK110 (Homo sapiens, UniProt P0C264)
T34 construct: purchased Eurofins Discovery (DiscoverX KINOMEscan scanMAX)
Experimental: as §1

EPHA7 = target: T35, EPHA7 (Homo sapiens, UniProt Q15375)
T35 construct: purchased Eurofins Discovery (DiscoverX KINOMEscan scanMAX)
Experimental: as §1

T24 sequence (Q9Y4K4 whole entry): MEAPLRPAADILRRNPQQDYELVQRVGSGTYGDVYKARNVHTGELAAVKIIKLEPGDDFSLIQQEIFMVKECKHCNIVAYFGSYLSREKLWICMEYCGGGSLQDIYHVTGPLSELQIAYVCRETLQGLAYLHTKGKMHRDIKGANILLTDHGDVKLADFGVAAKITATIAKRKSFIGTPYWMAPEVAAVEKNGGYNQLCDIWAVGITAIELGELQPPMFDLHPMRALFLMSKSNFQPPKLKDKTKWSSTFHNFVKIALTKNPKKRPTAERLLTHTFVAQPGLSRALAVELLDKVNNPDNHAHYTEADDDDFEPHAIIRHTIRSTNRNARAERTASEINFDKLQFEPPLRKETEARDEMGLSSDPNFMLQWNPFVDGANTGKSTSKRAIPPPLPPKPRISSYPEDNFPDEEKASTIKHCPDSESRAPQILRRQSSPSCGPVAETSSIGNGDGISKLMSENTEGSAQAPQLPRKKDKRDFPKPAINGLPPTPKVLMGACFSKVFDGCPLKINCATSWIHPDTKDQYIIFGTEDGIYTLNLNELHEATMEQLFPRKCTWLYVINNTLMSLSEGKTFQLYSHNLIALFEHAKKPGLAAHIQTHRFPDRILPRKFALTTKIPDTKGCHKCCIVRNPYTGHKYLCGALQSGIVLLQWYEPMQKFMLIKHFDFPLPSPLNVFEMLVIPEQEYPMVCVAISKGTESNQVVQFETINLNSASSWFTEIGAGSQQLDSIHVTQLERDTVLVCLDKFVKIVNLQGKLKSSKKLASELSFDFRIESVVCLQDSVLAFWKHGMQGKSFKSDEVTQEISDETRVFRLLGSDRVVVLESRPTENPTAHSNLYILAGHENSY
T6 sequence (P19784 whole entry): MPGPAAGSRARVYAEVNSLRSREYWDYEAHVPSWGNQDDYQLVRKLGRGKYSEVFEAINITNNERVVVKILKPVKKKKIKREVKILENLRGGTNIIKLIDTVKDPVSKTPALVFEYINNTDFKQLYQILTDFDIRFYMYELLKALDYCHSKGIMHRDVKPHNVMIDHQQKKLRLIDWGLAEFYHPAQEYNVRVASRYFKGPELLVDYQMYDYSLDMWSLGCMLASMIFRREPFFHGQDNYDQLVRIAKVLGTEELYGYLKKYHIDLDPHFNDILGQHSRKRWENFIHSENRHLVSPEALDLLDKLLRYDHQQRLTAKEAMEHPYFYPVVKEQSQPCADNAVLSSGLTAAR
T15 sequence (O14936 whole entry): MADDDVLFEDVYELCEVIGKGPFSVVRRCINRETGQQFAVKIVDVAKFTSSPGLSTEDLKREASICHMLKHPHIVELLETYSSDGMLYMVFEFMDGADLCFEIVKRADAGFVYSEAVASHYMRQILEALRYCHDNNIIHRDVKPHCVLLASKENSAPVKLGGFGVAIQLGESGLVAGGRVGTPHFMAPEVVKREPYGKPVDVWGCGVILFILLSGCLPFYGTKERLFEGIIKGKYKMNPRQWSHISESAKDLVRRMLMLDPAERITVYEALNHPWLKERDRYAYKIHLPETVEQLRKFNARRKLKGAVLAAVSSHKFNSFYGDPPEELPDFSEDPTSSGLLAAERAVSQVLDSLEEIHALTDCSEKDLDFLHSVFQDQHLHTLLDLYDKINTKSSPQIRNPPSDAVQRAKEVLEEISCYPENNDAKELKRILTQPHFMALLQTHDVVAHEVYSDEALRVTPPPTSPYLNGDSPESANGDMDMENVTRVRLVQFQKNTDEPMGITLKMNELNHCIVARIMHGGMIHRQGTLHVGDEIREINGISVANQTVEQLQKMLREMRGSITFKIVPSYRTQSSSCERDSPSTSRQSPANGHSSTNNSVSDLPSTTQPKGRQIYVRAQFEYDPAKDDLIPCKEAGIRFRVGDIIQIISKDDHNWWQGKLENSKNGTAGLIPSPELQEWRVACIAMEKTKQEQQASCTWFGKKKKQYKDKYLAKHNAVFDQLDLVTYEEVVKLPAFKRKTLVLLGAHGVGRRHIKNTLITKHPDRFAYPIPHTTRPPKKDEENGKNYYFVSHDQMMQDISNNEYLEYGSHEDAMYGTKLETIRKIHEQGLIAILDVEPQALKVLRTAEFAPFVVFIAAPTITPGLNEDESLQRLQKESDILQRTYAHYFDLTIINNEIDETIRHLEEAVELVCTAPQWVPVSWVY
T9 sequence (Q14680 whole entry): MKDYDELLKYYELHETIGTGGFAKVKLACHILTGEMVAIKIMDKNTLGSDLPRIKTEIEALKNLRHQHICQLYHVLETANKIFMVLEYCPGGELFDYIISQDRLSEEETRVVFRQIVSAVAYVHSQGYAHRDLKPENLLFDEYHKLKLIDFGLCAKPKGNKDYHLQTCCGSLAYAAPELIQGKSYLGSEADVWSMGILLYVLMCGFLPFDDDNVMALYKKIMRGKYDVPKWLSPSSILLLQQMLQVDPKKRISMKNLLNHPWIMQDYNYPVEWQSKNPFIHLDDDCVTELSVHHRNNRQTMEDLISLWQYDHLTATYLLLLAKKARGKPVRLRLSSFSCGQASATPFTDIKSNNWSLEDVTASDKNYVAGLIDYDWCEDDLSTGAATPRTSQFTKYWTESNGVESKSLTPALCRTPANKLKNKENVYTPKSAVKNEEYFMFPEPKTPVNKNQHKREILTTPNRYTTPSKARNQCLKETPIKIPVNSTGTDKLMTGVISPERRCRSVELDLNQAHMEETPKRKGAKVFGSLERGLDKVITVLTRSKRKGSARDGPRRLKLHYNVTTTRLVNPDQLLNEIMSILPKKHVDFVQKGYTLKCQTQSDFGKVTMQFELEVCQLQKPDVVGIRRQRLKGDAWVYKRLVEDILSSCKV
T13 sequence (P35590 22-1138): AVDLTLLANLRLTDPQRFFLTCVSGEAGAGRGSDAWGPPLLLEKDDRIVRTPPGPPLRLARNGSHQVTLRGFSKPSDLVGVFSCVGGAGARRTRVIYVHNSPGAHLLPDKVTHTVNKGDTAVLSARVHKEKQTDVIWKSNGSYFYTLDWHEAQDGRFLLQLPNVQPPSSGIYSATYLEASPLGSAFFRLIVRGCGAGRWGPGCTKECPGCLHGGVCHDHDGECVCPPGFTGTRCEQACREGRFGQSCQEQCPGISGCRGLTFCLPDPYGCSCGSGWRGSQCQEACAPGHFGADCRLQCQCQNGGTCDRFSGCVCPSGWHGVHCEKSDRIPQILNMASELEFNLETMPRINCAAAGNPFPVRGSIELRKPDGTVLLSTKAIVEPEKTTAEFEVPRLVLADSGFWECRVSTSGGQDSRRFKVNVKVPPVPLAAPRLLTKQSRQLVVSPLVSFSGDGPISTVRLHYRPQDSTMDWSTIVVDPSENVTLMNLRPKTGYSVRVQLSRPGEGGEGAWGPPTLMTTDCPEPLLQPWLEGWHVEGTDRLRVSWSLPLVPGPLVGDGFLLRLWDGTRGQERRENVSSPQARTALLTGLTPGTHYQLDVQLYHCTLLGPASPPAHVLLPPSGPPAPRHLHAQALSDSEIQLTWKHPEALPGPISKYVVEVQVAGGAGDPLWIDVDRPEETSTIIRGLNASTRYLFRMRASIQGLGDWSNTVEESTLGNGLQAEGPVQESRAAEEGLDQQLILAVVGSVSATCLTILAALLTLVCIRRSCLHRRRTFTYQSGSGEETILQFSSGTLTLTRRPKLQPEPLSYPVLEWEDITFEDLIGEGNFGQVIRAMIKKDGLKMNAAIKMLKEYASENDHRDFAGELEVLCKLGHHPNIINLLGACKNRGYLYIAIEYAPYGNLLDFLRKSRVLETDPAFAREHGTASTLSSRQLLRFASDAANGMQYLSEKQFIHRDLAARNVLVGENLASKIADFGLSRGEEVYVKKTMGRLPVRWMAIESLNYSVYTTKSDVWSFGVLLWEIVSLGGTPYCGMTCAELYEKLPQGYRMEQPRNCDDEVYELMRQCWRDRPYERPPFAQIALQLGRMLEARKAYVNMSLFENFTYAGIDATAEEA
T20 sequence (P80192 whole entry): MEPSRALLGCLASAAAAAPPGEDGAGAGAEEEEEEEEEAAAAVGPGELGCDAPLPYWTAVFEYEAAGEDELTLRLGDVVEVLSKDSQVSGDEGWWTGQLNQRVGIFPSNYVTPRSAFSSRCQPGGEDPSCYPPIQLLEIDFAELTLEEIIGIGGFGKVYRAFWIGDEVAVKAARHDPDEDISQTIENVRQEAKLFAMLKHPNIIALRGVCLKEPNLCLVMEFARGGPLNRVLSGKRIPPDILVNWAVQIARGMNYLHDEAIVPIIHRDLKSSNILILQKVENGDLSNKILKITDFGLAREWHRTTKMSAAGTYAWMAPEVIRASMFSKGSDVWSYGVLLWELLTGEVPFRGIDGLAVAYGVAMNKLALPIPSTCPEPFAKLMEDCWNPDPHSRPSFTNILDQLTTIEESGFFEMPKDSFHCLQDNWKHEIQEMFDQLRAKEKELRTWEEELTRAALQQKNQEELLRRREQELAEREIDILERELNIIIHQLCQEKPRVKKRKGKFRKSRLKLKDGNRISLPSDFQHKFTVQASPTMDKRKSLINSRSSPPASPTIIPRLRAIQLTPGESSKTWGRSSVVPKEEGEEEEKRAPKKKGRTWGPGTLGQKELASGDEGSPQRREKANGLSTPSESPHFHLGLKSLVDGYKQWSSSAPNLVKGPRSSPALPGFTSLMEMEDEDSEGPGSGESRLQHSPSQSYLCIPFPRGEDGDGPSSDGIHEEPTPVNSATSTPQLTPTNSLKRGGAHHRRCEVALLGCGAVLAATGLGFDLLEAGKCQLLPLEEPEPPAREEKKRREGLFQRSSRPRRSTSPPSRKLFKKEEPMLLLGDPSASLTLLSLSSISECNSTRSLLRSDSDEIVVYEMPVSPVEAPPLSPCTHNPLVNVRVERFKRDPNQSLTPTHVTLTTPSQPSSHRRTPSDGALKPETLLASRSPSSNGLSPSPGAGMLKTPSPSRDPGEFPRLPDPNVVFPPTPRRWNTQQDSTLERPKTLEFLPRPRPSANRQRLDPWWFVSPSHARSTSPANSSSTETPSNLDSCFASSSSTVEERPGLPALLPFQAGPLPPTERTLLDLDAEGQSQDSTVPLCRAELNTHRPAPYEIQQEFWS

Cc1cc(Nc2ccc(F)c(CC3(C(=O)N4CCC(F)(CN5CCN(c6ccc(N7CCC(=O)NC7=O)cn6)CC5)CC4)CCN(Cc4cccc(Cl)c4F)CC3)n2)n[nH]1 [SK5527]
99%: remaining binding at 0.1 µM (MELK; 100 nM)
100%: remaining binding at 0.1 µM (CDK2; 100 nM) | remaining binding at 0.1 µM (ERN1; 100 nM) | remaining binding at 1 µM (ERN1; 1000 nM) | remaining binding at 0.1 µM (CSK; 100 nM) | remaining binding at 1 µM (CSK; 1000 nM) | remaining binding at 0.1 µM (CSNK2A2; 100 nM) | remaining binding at 1 µM (CSNK2A2; 1000 nM) | remaining binding at 0.1 µM (MST1; 100 nM) | remaining binding at 1 µM (MST1; 1000 nM) | remaining binding at 1 µM (HUNK; 1000 nM) | remaining binding at 0.1 µM (PIM3; 100 nM) | remaining binding at 1 µM (PIM3; 1000 nM) | remaining binding at 0.1 µM (SGK3; 100 nM) | remaining binding at 0.1 µM (LIMK2; 100 nM) | remaining binding at 0.1 µM (EPHB3; 100 nM) | remaining binding at 1 µM (EPHB3; 1000 nM) | remaining binding at 0.1 µM (AMPK-alpha1; 100 nM) | remaining binding at 1 µM (AMPK-alpha1; 1000 nM) | remaining binding at 0.1 µM (CSNK1G1; 100 nM) | remaining binding at 0.1 µM (MAP4K5; 100 nM) | remaining binding at 1 µM (MAP4K5; 1000 nM) | remaining binding at 0.1 µM (MAK; 100 nM) | remaining binding at 1 µM (MAK; 1000 nM) | remaining binding at 0.1 µM (RIPK1; 100 nM) | remaining binding at 0.1 µM (DRAK1; 100 nM) | remaining binding at 0.1 µM (MARK3; 100 nM) | remaining binding at 0.1 µM (CDK4-cyclinD1; 100 nM) | remaining binding at 0.1 µM (SgK110; 100 nM) | remaining binding at 0.1 µM (EPHA7; 100 nM)
59%: remaining binding at 0.1 µM (MKNK2; 100 nM)
83%: remaining binding at 0.1 µM (CDK3; 100 nM) | remaining binding at 1 µM (SGK2; 1000 nM) | remaining binding at 0.1 µM (FLT3(N841I); 100 nM)
74%: remaining binding at 1 µM (MAPKAPK5; 1000 nM)
98%: remaining binding at 1 µM (LIMK2; 1000 nM) | remaining binding at 1 µM (CSNK1G1; 1000 nM)
86%: remaining binding at 1 µM (RIPK1; 1000 nM)
85%: remaining binding at 0.1 µM (MAPKAPK5; 100 nM)
80%: remaining binding at 0.1 µM (TYRO3; 100 nM)
3.3%: remaining binding at 1 µM (AXL; 1000 nM)
84%: remaining binding at 1 µM (KIT-autoinhibited; 1000 nM)
87%: remaining binding at 1 µM (MELK; 1000 nM) | remaining binding at 1 µM (CASK; 1000 nM) | remaining binding at 1 µM (CDK3; 1000 nM) | remaining binding at 1 µM (DRAK1; 1000 nM) | remaining binding at 1 µM (MARK3; 1000 nM) | remaining binding at 1 µM (CDK4-cyclinD1; 1000 nM)
92%: remaining binding at 0.1 µM (BRK; 100 nM)
68%: remaining binding at 1 µM (MKNK2; 1000 nM) | remaining binding at 1 µM (TIE1; 1000 nM)
76%: remaining binding at 1 µM (FLT3(N841I); 1000 nM)
93%: remaining binding at 0.1 µM (HUNK; 100 nM) | remaining binding at 0.1 µM (DCAMKL2; 100 nM) | remaining binding at 0.1 µM (CASK; 100 nM) | remaining binding at 0.1 µM (SGK2; 100 nM)
36%: remaining binding at 0.1 µM (AXL; 100 nM)
82%: remaining binding at 1 µM (NLK; 1000 nM) | remaining binding at 1 µM (EPHA7; 1000 nM)
88%: remaining binding at 1 µM (SGK3; 1000 nM) | remaining binding at 1 µM (BRK; 1000 nM)
94%: remaining binding at 1 µM (CDK2; 1000 nM) | remaining binding at 0.1 µM (KIT-autoinhibited; 100 nM) | remaining binding at 0.1 µM (NLK; 100 nM) | remaining binding at 0.1 µM (MLK1; 100 nM)
91%: remaining binding at 1 µM (DCAMKL2; 1000 nM) | remaining binding at 1 µM (MLK1; 1000 nM)
89%: remaining binding at 0.1 µM (TIE1; 100 nM) | remaining binding at 1 µM (TYRO3; 1000 nM) | remaining binding at 1 µM (SgK110; 1000 nM)
